According to US9073907B2, “Thiazoles derivatives and their use as positive allosteric modulators of metabotropic glutamate receptors” (Addex Pharma S.A., priority 2009, dated 2015):

Compound	melting point [°C]
c1ccc(Nc2nc(-c3cn[nH]c3)c(N3CCOCC3)s2)nc1 [Compound 1-2, 5-Morpholino-4-(1H-pyrazol-4-yl)-N-(pyridin-2-yl)thiazol-2-amine]	230 to 231
c1ccc(Nc2nc(-c3cn[nH]c3)c(N3CCCCC3)s2)nc1 [Compound 1-4, 5-(Piperidin-1-yl)-4-(1H-pyrazol-4-yl)-N-(pyridin-2-yl)thiazol-2-amine]	238
Cc1sc(Nc2ccccn2)nc1-c1cnn(S(=O)(=O)c2ccc(Cl)cc2)c1 [Compound 1-9, 4-(1-(4-Chlorophenylsulfonyl)-1H-pyrazol-4-yl)-5-methyl-N-(pyridin-2-yl)thiazol-2-amine]	232 to 233
Cc1cccc(Nc2nc(-c3cn[nH]c3)c(F)s2)n1 [Compound 1-11, 5-Fluoro-N-(6-methylpyridin-2-yl)-4-(1H-pyrazol-4-yl)thiazol-2-amine]	204
CN(C)c1sc(Nc2ccccn2)nc1-c1cn[nH]c1 [Compound 1-12, N^5,N^5-Dimethyl-4-(1H-pyrazol-4-yl)-N^2-(pyridin-2-yl)thiazole-2,5-diamine]	232
Fc1sc(Nc2cccc(Cl)n2)nc1-c1cn[nH]c1 [Compound 1-13, N-(6-Chloropyridin-2-yl)-5-fluoro-4-(1H-pyrazol-4-yl)thiazol-2-amine]	239
Cc1sc(Nc2cccc(I)n2)nc1-c1cn[nH]c1 [Compound 1-14, N-(6-Iodopyridin-2-yl)-5-methyl-4-(1H-pyrazol-4-yl)thiazol-2-amine]	> 260
Cc1sc(Nc2ncccc2I)nc1-c1cn[nH]c1 [Compound 1-15, N-(3-Iodopyridin-2-yl)-5-methyl-4-(1H-pyrazol-4-yl)thiazol-2-amine]	243 to 245
Cc1sc(Nc2cc(F)ccn2)nc1-c1cn[nH]c1 [Compound 1-19, N-(4-Fluoropyridin-2-yl)-5-methyl-4-(1H-pyrazol-4-yl)thiazol-2-amine]	283
Cc1ccc(F)c(Nc2nc(-c3cn[nH]c3)c(C)s2)n1 [Compound 1-23, N-(3-Fluoro-6-methylpyridin-2-yl)-5-methyl-4-(1H-pyrazol-4-yl)thiazol-2-amine]	323
COc1ccc(Nc2nc(-c3cn[nH]c3)c(C)s2)nc1 [Compound 1-24, N-(5-M ethoxypyridin-2-yl)-5-methyl-4-(1H-pyrazol-4-yl)thiazol-2-amine]	229
Fc1sc(Nc2cnccn2)nc1-c1cn[nH]c1 [Compound 1-25, 5-Fluoro-N-(pyrazin-2-yl)-4-(1H-pyrazol-4-yl)thiazol-2-amine]	279
Fc1ccc(Nc2nc(-c3cn[nH]c3)c(F)s2)nc1 [Compound 1-28, 5-Fluoro-N-(5-fluoropyridin-2-yl)-4-(1H-pyrazol-4-yl)thiazol-2-amine]	239
Cc1cccc(Nc2nc(-c3cnn(C(N)=O)c3)c(F)s2)n1 [Compound 1-30, 4-(5-Fluoro-2-(6-methylpyridin-2-ylamino)thiazol-4-yl)-1H-pyrazole-1-carboxamide]	209
Cc1ccnc(Nc2nc(-c3cn[nH]c3)cs2)n1 [Compound 1-31, N-(4-Methylpyrimidin-2-yl)-4-(1H-pyrazol-4-yl)thiazol-2-amine]	307 to 310
Cc1ccnc(Nc2nc(-c3cn[nH]c3)c(C)s2)n1 [Compound 1-33, 5-Methyl-N-(4-methylpyrimidin-2-yl)-4-(1H-pyrazol-4-yl)thiazol-2-amine]	255
Cc1cnc(Nc2nc(-c3cn[nH]c3)c(C)s2)nc1 [Compound 1-34, 5-Methyl-N-(5-methylpyrimidin-2-yl)-4-(1H-pyrazol-4-yl)thiazol-2-amine]	> 410
Cc1sc(Nc2ccccn2)nc1-c1cnn(C(=O)N(C)C)c1 [Compound 1-36, N,N-Dimethyl-4-(5-methyl-2-(pyridin-2-ylamino)thiazol-4-yl)-1H-pyrazole-1-carboxamide]	181 to 185
c1ccc(-c2n[nH]cc2-c2csc(Nc3ccccn3)n2)cc1 [Compound 1-37, 4-(3-Phenyl-1H-pyrazol-4-yl)-N-(pyridin-2-yl)thiazol-2-amine]	229 to 231

Compound	melting point [°C]
COCc1n[nH]cc1-c1csc(Nc2ccccn2)n1 [Compound 1-40, 4-(3-(Methoxymethyl)-1H-pyrazol-4-yl)-N-(pyridin-2-yl)thiazol-2-amine]	190
Cc1nc(Nc2nc(-c3cn[nH]c3)cs2)cs1 [Compound 1-41, N-(2-Methylthiazol-4-yl)-4-(1H-pyrazol-4-yl)thiazol-2-amine]	236 to 239
c1csc(Nc2nc(-c3cn[nH]c3)cs2)n1 [Compound 1-42, 4-(1H-Pyrazol-4-yl)-N-(thiazol-2-yl)thiazol-2-amine]	277 to 280
Cc1sc(Nc2cccc(CF)n2)nc1-c1cn[nH]c1 [Compound 1-43, N-(6-(Fluoromethyl)pyridin-2-yl)-5-methyl-4-(1H-pyrazol-4-yl)thiazol-2-amine]	270 to 280
Cc1sc(Nc2cccc(C(F)F)n2)nc1-c1cn[nH]c1 [Compound 1-44, N-(6-(Difluoromethyl)pyridin-2-yl)-5-methyl-4-(1H-pyrazol-4-yl)thiazol-2-amine]	269 to 271
Clc1sc(Nc2ncccn2)nc1-c1cn[nH]c1 [Compound 1-45, 5-Chloro-4-(1H-pyrazol-4-yl)-N-(pyrimidin-2-yl)thiazol-2-amine]	310 to 313
CCc1ccnc(Nc2nc(-c3cn[nH]c3)c(C)s2)n1 [Compound 1-46, N-(4-Ethylpyrimidin-2-yl)-5-methyl-4-(1H-pyrazol-4-yl)thiazol-2-amine]	223 to 225
Cc1ccnc(Nc2nc(-c3cn[nH]c3)c(Cl)s2)n1 [Compound 1-49, 5-Chloro-N-(4-methylpyrimidin-2-yl)-4-(1H-pyrazol-4-yl)thiazol-2-amine]	243
CN1CCC(Nc2nc(-c3cn[nH]c3)cs2)C1=O (centres unmarked) [Compound 1-50, 3-(4-(1H-Pyrazol-4-yl)thiazol-2-ylamino)-1-methylpyrrolidin-2-one]	196 to 204
Cc1sc(Nc2nccc(C(C)C)n2)nc1-c1cn[nH]c1 [Compound 1-52, N-(4-Isopropylpyrimidin-2-yl)-5-methyl-4-(1H-pyrazol-4-yl)thiazol-2-amine]	249 to 252
CC(=O)c1[nH]ncc1-c1csc(Nc2nccc(C)n2)n1 [Compound 1-54, 1-(4-(2-(4-Methylpyrimidin-2-ylamino)thiazol-4-yl)-1H-pyrazol-5-yl)ethanone]	305 to 310
Fc1cnc(Nc2nc(-c3cn[nH]c3)cs2)nc1 [Compound 1-55, N-(5-Fluoropyrimidin-2-yl)-4-(1H-pyrazol-4-yl)thiazol-2-amine]	256
Cc1ccnc(Nc2nc(-c3c[nH]nc3N3CCCCC3)cs2)n1 [Compound 1-57, N-(4-Methylpyrimidin-2-yl)-4-(3-(piperidin-1-yl)-1H-pyrazol-4-yl)thiazol-2-amine]	256
c1cnc(Nc2nc(-c3cn[nH]c3)cs2)nc1 [Compound 1-59, 4-(1H-Pyrazol-4-yl)-N-(pyrimidin-2-yl)thiazol-2-amine]	311 to 312
Cc1ccnc(Nc2nc(-c3c[nH]nc3N3CCOCC3)cs2)n1 [Compound 1-60, N-(4-Methylpyrimidin-2-yl)-4-(3-morpholino-1H-pyrazol-4-yl)thiazol-2-amine]	260
Cc1sc(Nc2nccc(C3CC3)n2)nc1-c1cn[nH]c1 [Compound 1-62, N-(4-Cyclopropylpyrimidin-2-yl)-5-methyl-4-(1H-pyrazol-4-yl)thiazol-2-amine]	228 to 231
Cc1sc(Nc2ccccn2)nc1-c1cnn(C(=O)c2ccccn2)c1 [Compound 1-63, (4-(5-Methyl-2-(pyridin-2-ylamino)thiazol-4-yl)-1H-pyrazol-1-yl)(pyridin-2-yl)methanone]	226 to 227
O=C(c1[nH]ncc1-c1csc(Nc2ncccn2)n1)C1CC1 [Compound 1-66, Cyclopropyl(4-(2-(pyrimidin-2-ylamino)thiazol-4-yl)-1H-pyrazol-5-yl)methanone]	244
CC(=O)c1[nH]ncc1-c1csc(Nc2ncccn2)n1 [Compound 1-67, 1-(4-(2-(Pyrimidin-2-ylamino)thiazol-4-yl)-1H-pyrazol-5-yl)ethanone]	287
